Data from US20260242368A1, “GBA1 AND GCS DUAL MODULATOR” (ONO PHARMACEUTICAL CO., LTD., priority 2023, published 2026).
pIC50: −log10 of the molar value.

Assays:
Human GCS = target: T1, Human GCS (Homo sapiens, UniProt Q16739); test: Evaluation of human GCS enzyme inhibitory activity (HL60 cell lysate, NBD-C6 ceramide, LC/MSMS); assay type: biochemical; details: 37° C. 90 min, read-out: GCS inhibition IC50
T1 construct: The lysate of HL60 cells were used in this assay; endogenous in cells; host or cells: HL60 cells (lysate supernatant)
T1 sequence (Q16739 1-394): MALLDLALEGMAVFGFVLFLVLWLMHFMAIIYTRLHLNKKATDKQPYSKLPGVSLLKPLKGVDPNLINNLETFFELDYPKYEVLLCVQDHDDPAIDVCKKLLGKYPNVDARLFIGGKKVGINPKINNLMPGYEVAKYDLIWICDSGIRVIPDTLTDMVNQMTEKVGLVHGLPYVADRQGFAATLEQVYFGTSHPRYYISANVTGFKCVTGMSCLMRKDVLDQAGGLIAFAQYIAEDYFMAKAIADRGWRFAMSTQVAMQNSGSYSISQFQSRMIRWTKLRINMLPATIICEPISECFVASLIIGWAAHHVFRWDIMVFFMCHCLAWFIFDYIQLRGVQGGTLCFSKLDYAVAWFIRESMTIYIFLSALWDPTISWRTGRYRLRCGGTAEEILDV

[1] = target: T2, recombinant GBA enzyme (human GBA1) (Homo sapiens, UniProt P04062); test: Evaluation of human GBA1 enzyme inhibitory activity (4-MUG substrate); assay type: biochemical; details: pH5.2, 37° C. 60 min, read-out: GBA1 inhibition IC50
T2 sequence (P04062 40-536): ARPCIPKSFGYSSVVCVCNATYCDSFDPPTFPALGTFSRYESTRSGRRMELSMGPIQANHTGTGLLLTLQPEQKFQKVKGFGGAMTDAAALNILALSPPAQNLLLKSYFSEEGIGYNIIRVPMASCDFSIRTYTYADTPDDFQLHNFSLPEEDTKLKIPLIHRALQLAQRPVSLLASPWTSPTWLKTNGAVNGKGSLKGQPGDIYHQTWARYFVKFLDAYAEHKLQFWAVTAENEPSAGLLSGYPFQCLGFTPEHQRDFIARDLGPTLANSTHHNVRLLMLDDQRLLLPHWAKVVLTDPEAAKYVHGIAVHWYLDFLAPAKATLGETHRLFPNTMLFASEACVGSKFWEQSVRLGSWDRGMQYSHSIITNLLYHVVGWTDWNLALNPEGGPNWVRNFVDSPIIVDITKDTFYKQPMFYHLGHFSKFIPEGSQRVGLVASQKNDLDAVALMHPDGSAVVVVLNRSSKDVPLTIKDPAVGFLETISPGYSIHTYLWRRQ

human GBA2 = target: T3, human GBA2 (Homo sapiens, UniProt Q9HCG7); test: Evaluation of human GBA2 enzyme inhibitory activity (GBA2-rich membrane suspension, 4-MUG); assay type: biochemical; details: GBA2-rich membrane of transfected HEK293T cells, CBE preincubation, read-out: GBA2 inhibition IC50
T3 construct: The complete open reading frames for GBA2 (human NM_020944.2) was amplified from human tissue; made in house; host or cells: HEK293T cells, transiently transfected (pCDNA-3.1); washed membrane pellet used as crude enzyme
T3 sequence (Q9HCG7 1-927): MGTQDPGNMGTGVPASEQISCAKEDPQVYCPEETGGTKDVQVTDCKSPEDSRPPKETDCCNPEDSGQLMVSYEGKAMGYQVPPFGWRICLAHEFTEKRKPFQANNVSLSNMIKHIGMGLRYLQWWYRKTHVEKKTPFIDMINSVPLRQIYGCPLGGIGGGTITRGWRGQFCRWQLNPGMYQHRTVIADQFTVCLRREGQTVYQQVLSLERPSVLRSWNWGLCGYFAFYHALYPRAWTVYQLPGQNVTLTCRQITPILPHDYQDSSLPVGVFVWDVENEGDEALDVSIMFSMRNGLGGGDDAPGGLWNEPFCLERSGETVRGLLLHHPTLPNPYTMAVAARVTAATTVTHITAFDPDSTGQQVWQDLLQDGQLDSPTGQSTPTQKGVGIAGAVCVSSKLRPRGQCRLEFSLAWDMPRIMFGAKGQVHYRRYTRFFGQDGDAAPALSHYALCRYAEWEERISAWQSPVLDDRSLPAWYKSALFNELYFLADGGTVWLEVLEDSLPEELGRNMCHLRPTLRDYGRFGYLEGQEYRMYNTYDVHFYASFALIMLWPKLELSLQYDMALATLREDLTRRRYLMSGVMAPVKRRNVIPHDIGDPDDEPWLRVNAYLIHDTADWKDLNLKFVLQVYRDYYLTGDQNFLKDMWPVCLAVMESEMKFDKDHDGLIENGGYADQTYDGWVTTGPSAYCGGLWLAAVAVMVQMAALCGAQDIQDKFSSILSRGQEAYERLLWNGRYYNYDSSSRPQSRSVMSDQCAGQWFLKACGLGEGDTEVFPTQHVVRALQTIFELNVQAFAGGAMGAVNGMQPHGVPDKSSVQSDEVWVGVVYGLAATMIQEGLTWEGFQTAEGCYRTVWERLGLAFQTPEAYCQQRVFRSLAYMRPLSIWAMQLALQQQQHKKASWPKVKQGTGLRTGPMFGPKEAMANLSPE

[2] = system: GBA1 (β-glucocerebrosidase mutation of N307S) in Gaucher's cell line GM00372; test: Evaluation of human GBA1 cellular activity (Gaucher's cell line, 6 days treatment); assay type: cell-based; details: GM00372 cells, DMSO-treated cells as negative control, normalized to protein
Description: The Gaucher's cell line with β-glucocerebrosidase mutation of N307S (Coriell Institute, Cat. GM00372) was cultured and expanded using EMEM with 15% FBS. The cell was passaged at least twice and could be used until the 20th passages. The cells were seeded at the density of 1.25×10^4 cells/well in 96-well plate. After cell culturing overnight, 50 μL of cell medium was discarded, and 50 μL of the diluted compound was added (with 0.3% DMSO). The cells were treated with compound for 6 days. On day 6, the cells were washed once with HBSS and incubated in HBSS for 3 h followed by lysing using 30 μL assay buffer (pH5.2 Mcllvaine buffer supplemented with 0.25% sodium taurocholate, 0.5% Triton X-100 and protease cocktail inhibitor) for 5 min at 4° C. on shaker. For GBA enzymatic assay, 15 μL of cell lysate was incubated with 5 μL of 4-MUG (6 mmol/L) for 60 min in 384 well format followed by adding 20 μL of stop solution (1 mmol/L glycine solution adjusted to pH10 using 1 mol/L NaOH). The reaction product of 4-MU was measured (excitation 355 nm, emission 450 nm) on fluorescence spectrophotometer. For the protein quantification, 4 μL of cell lysate was mixed with 36 μL of Pierce BCA reagents for 30 min. The protein was detected according to the manufacturer's instructions. Enzyme activity in cell lysate was normalized to protein concentration. The blank included substrate and assay buffer followed by addition of stop solution. Enzyme activity in cells treated with DMSO was used as a negative control, and results were represented as the percent change in enzyme activity in cells treated with each compound.

SMILES	pIC50 (Human GCS)	pIC50 [1]	pIC50 (human GBA2)	Percent change in enzyme activity at test concentration 0.37 μM [2] [%]	Percent change in enzyme activity at test concentration 1.1 μM [2] [%]	Percent change in enzyme activity at test concentration 3.3 μM [2] [%]	Percent change in enzyme activity at test concentration 10 μM [2] [%]	Percent change in enzyme activity at test concentration […] [2] [%]
CCOc1cc(COC[C@@H](F)CCCCN2C[C@H](O)[C@@H](O)[C@H](O)[C@@H](O)C2)ccc1F (single isomer, unassigned) [Example 72]	6.72	5.92	< 5.00	214	248	259	284	160
O[C@H]1[C@H](O)[C@@H](O)CN(CCCC[C@H](F)COCc2csc(-c3ccc(F)cc3)n2)C[C@@H]1O (single isomer, unassigned) [Example 74]	7.52	5.77	< 5.00	150	185	193	216	96
Cc1nc(COC[C@@H](F)CCCCN2C[C@H](O)[C@@H](O)[C@H](O)[C@@H](O)C2)c(-c2cc(F)cc(F)c2)o1 (single isomer, unassigned) [Example 100]				147	145	163	169	142
CCc1ccc(COC[C@@H](F)CCCCN2C[C@H](O)[C@@H](O)[C@H](O)[C@@H](O)C2)cc1 (single isomer, unassigned) [Example 101]	6.77	5.96	< 5.00	157	209	219	227	157
O[C@H]1[C@H](O)[C@@H](O)CN(CCCC[C@H](F)COCc2ccc(Cl)cc2)C[C@@H]1O (single isomer, unassigned) [Example 107]	6.89	5.92	< 5.00	110	141	157	199	109
Cc1ccc(COC[C@@H](F)CCCCN2C[C@H](O)[C@@H](O)[C@H](O)[C@@H](O)C2)cc1 (single isomer, unassigned) [Example 135]	6.17	5.49	< 5.00	108	127	153	191	102
O[C@H]1[C@H](O)[C@@H](O)CN(CCCC[C@H](F)COCc2ccc(-c3cc(F)cc(F)c3)nn2)C[C@@H]1O (single isomer, unassigned) [Example 139]	6.66	5.29	< 5.00	119	154	157	204	115
Cc1ccc(COCCCCCCN2C[C@H](O)[C@@H](O)[C@H](O)[C@@H](O)C2)cc1 [Example 1, (3S,4R,5R,6S)-1-{6-[(4-methylbenzyl)oxy]hexyl}-3,4,5,6-azepanetetrol]	5.70	5.29	< 5.00	166	200	221	230	155
O[C@H]1[C@H](O)[C@@H](O)CN(CCCCCCOCc2csc(-c3cc(F)cc(F)c3)n2)C[C@@H]1O [Example 21, (3S,4R,5R,6S)-1-(6-{[2-(3,5-difluorophenyl)-1,3-thiazol-4-yl]methoxy}hexyl)-3,4,5,6-azepanetetrol]	7.22	5.62	< 5.00					
